Results as given in patent publication US8735620B2, “Processes for preparing (E)-styrylbenzylsulfone compounds and uses thereof for treating proliferative disorders” (priority 2008, dated 2014).
Like-named read-outs stand apart in the source and are kept apart here.

Experiments:
[1] = tested on: BT20 (human breast tumor cell line); experiment: Cytotoxicity assay (trypan blue exclusion, 96 h), BT20; assay type: cell-based; details: BT20, 96 h treatment
Text: (§2) Tissue Culture and Reagents: Paclitaxel was purchased from Sigma. Cell lines were purchased from ATCC. Cell lines were routinely grown in DMEM or RPM1 (CellGro) supplemented with 10% fetal bovine serum (Atlas) and 1 unit/mL penicillin-streptomycin (Gibco).

[2] = tested on: DU145 (human prostate tumor cell line); experiment: Cytotoxicity assay (trypan blue exclusion, 96 h), DU145; assay type: cell-based
Text: as §2

[3] = tested on: H157 (human lung tumor cell line); experiment: Cytotoxicity assay (trypan blue exclusion, 96 h), H157; assay type: cell-based
Text: as §2

T47D = experiment: Tumor cell killing, T47D; assay type: cell-based, human; details: BREAST (ER+), read-out: Tumor cell killing (IC50) concentration
Text: as §2

MCF-7 = experiment: Tumor cell killing, MCF-7; assay type: cell-based, human; details: MCF-7, BREAST (ER+); read-out: Tumor cell killing (IC50) concentration
Text: as §2

PC-3 = experiment: Tumor cell killing, PC-3; assay type: cell-based, human; details: PC-3, PROSTATE (AR+); read-out: Tumor cell killing (IC50) concentration
Text: as §2

OV-CAR-3 = experiment: Tumor cell killing, OV-CAR-3; assay type: cell-based, human; details: OV-CAR-3, OVARIAN; read-out: Tumor cell killing (IC50) concentration
Text: as §2

MIA-PaCa2 = experiment: Tumor cell killing, MIA-PaCa2; assay type: cell-based, human; details: MIA-PaCa2, PANCREATIC; read-out: Tumor cell killing (IC50) concentration
Text: as §2

U87 = experiment: Tumor cell killing, U87; assay type: cell-based, human; details: U87, GLIOBLASTOMA; read-out: Tumor cell killing (IC50) concentration
Text: as §2

A549 = experiment: Tumor cell killing, A549; assay type: cell-based, human; details: A549, NSCLC; read-out: Tumor cell killing (IC50) concentration
Text: as §2

H187 = experiment: Tumor cell killing, H187; assay type: cell-based, human; details: H187, SCLC; read-out: Tumor cell killing (IC50) concentration
Text: as §2

N417 = experiment: Tumor cell killing, N417; assay type: cell-based, human; details: N417, SCLC; read-out: Tumor cell killing (IC50) concentration
Text: as §2

RF48 = experiment: Tumor cell killing, RF48; assay type: cell-based, human; details: RF48, GASTRIC; read-out: Tumor cell killing (IC50) concentration
Text: as §2

COLO-205 = experiment: Tumor cell killing, COLO-205; assay type: cell-based, human; details: COLO-205, COLO-RECTAL; read-out: Tumor cell killing (IC50) concentration
Text: as §2

HCT-15 = experiment: Tumor cell killing, HCT-15; assay type: cell-based, human; details: HCT-15, COLO-RECTAL; read-out: Tumor cell killing (IC50) concentration
Text: as §2

SK-MEL-28 = experiment: Tumor cell killing, SK-MEL-28; assay type: cell-based, human; details: SK-MEL-28, MELANOMA; read-out: Tumor cell killing (IC50) concentration
Text: as §2

CEM = experiment: Tumor cell killing, CEM; assay type: cell-based, human; details: read-out: Tumor cell killing (IC50) concentration
MOLT-4 = experiment: Tumor cell killing, MOLT-4; assay type: cell-based, human; details: MOLT-4, T-lymphoblastic: ALL; read-out: Tumor cell killing (IC50) concentration
Namalwa = experiment: Tumor cell killing, Namalwa; assay type: cell-based, human; details: Burkitt's Lymphoma (B-cell), read-out: Tumor cell killing (IC50) concentration
Raji = experiment: Tumor cell killing, Raji; assay type: cell-based, human; details: Burkitt's Lymphoma (B-cell), read-out: Tumor cell killing (IC50) concentration
MES-SA = experiment: Tumor cell killing, MES-SA (parental uterine sarcoma); assay type: cell-based, human; details: MES-SA, SARCOMA; read-out: Tumor cell killing (IC50) concentration
Protocol: (§1) A. 6aa inhibits the growth of parental (MES-SA) and Paclitaxel resistant (MES-SA/DX5) cell lines with equal efficiency. The parental uterine sarcoma cells and the MDR positive (MES-SA/DX5) cells were plated into 6 well dishes and treated with various concentrations of 6aa and Paclitaxel for 96 h. The number of viable cells from duplicate plates was determined by trypan blue exclusion. B. Soft Agar Assays. MIA-PaCa-2 cells (1.0×10^5) were plated in soft agar containing various concentrations of each compound in triplicates. After three weeks of growth, the plates were stained for 48 h using 0.05% nitroblue tetrazolium solution. Representative plates were photographed using an Olympus stereoscope mounted with a Sony digital camera system (DKC5000, Sony Inc). Tissue Culture and Reagents: […] Cell lines were purchased from ATCC. Cell lines were routinely grown in DMEM or RPM1 (CellGro) supplemented with 10% fetal bovine serum (Atlas) and 1 unit/mL penicillin-streptomycin (Gibco). A number of tumor cell lines were tested using a dose response end point assay system. The cells were grown in either DMEM or RPMI supplemented with 10% fetal bovine serum and 1 unit/mL Penicillin-Streptomycin solution. […] Cell counts were determined from duplicate wells after 96 h of treatment. The total number of viable cells was determined by trypan blue exclusion.

MES-SA/DX5 = experiment: Tumor cell killing, MES-SA/DX5 (multidrug resistant subline); assay type: cell-based, human; details: for IC50: *MESSA/DX5, RESISTANT SARCOMA (multi-drug resistant), read-out: Tumor cell killing (IC50) concentration
Protocol: as §1

[4] = tested on: panel of 60 human cancer cell-lines; experiment: NCI Developmental Therapeutics Program panel of 60 human cancer cell-lines; assay type: cell-based; details: at nanomolar concentrations, including drug-resistant cell-lines
[5] = tested on: BT20, DU145, H157 and DLD1 cell lines; experiment: In vitro cytotoxicity, four human tumor cell lines (SAR discussion); assay type: cell-based
Protocol: A number of tumor cell lines were tested using a dose response end point assay system. The cells were grown in either DMEM or RPMI supplemented with 10% fetal bovine serum and 1 unit/mL Penicillin-Streptomycin solution. The tumor cells were plated into 6 well dishes at a cell density of 1.0×10^5 cells/mL/well and compounds were added 24 h later at various concentrations. Cell counts were determined from duplicate wells after 96 h of treatment. The total number of viable cells was determined by trypan blue exclusion.
Following the synthesis of this group of compounds, their in vitro cytotoxicity was assessed using four different human tumor cell lines derived from human breast (BT20), prostate (DU145), lung (H157) and colorectal (DLD1) cancers. […] In a majority of the compounds described here, a methoxy group was kept constant at the 4th position on the aromatic ring of the benzyl moiety.

[6] = tested on: mantle cell lymphoma cell lines; details: Park et al Oncogene 2007; cited from earlier work
[7] = DU145, 96 h treatment, read-out: DU145 IC50
[8] = DU145, PROSTATE (AR−), Table 2, read-out: Tumor cell killing (IC50) concentration
[9] = H157, 96 h treatment, read-out: H157 IC50
[10] = H157, NSCLC, Table 2, read-out: Tumor cell killing (IC50) concentration
[11] = LEUKEMIC (second listing, r39, parental of CEM/C2)

SMILES	IC50 [1]	IC50 [2, 7]	IC50 [2, 8]	IC50 [3, 9]	IC50 [3, 10]	IC50 (T47D)	IC50 (MCF-7)	IC50 (PC-3)	IC50 (OV-CAR-3)	IC50 (MIA-PaCa2)	IC50 (U87)	IC50 (A549)	IC50 (H187)	IC50 (N417)	IC50 (RF48)	IC50 (COLO-205)	IC50 (HCT-15)	IC50 (SK-MEL-28)	IC50 (CEM; LEUKEMIC (first listing, r26))	IC50 (CEM; [11])	further results
COc1cc(OC)c(/C=C/S(=O)(=O)Cc2ccc(OC)c(O)c2)c(OC)c1 [6aa, (E)-2,4,6-Trimethoxystyryl-3-Hydroxy-4-Methoxybenzyl Sulfone]	10 nM	3 nM	7 nM	4 nM	7 nM	6 nM	4 nM	8 nM	6 nM	4 nM	7 nM	10 nM	7 nM	5 nM	5 nM	9 nM	8 nM	7 nM	9 nM	10 nM	IC50 (MOLT-4): 5 nM; IC50 (Namalwa): 6 nM; IC50 (Raji): 4 nM; IC50 (MES-SA): 6 nM; IC50 (MES-SA/DX5): 5 nM; sensitivity of parental and MDR positive cell lines to cell killing activity (MES-SA/DX5; MES-SA and MES-SA/DX5): equally sensitive; growth inhibition of NCI 60 cell-line panel [4]: inhibited the growth of all of the tested cell lines; cytotoxic activity, SAR statement ([5]; four human tumor cell lines): best activity in the entire series; fold more active than 6s ([5]; in all four cell lines): 8 to 10 fold; effect on mantle cell lymphoma cell lines [6]: altered the growth and cell cycle status
COc1ccc(CS(=O)(=O)/C=C/c2c(OC)cc(OC)cc2OC)cc1 [6s, (E)-2,4,6-Trimethoxystyryl-4-Methoxybenzyl sulfone]	20 nM	25 nM	25 nM	30 nM	30 nM	25 nM	3 nM	30 nM	8 nM	8 nM	40 nM	20 nM	15 nM	8 nM	10 nM	15 nM	20 nM	40 nM	30 nM	30 nM	IC50 (MOLT-4): 9 nM; IC50 (Namalwa): 15 nM; IC50 (Raji): 9 nM; IC50 (MES-SA): 10 nM; IC50 (MES-SA/DX5): 10 nM; growth inhibition of NCI 60 cell-line panel [4]: inhibited the growth of all of the tested cell lines; fold more active than 6m ([5]; cell-killing assays): 20 fold; effect on mantle cell lymphoma cell lines [6]: altered the growth and cell cycle status
